Columns and labels:
Venturia inaequalis = assay: Venturia test (apples)/preventive; conditions: Table A, preventive, evaluated 10 days after inoculation
Experimental: After the spray coating has dried on, the plants are inoculated with an aqueous conidia suspension of the causal agent of apple scab (Venturia inaequalis) and then remain for 1 day in an incubation cabinet at approximately 20° C. and a relative atmospheric humidity of 100%.
The plants are then placed in a greenhouse at approximately 21° C. and a relative atmospheric humidity of approximately 90%.
The test is evaluated 10 days after the inoculation.

Sphaerotheca fuliginea = assay: Sphaerotheca test (cucumbers)/preventive; conditions: evaluated 7 days after inoculation
Experimental: After the spray coating has dried on, the plants are inoculated with an aqueous spore suspension of Sphaerotheca fuliginea. The plants are then placed in a greenhouse at approximately 23° C. and a relative atmospheric humidity of approximately 70%.
The test is evaluated 7 days after the inoculation.

Botrytis cinerea = assay: Botrytis test (beans)/preventive; conditions: Table D, preventive, application rate 10 ppm a.i., size of lesions 2 days after inoculation
Experimental: After the spray coating has dried on, 2 small pieces of agar covered with growth of Botrytis cinerea are placed on each leaf. The inoculated plants are placed in a darkened chamber at 20° C. and a relative atmospheric humidity of 100%.
2 days after the inoculation, the size of the lesions on the leaves is evaluated.

Alternaria solani = assay: Alternaria test (tomatoes)/preventive; conditions: Table C, preventive, application rate 50 ppm a.i., evaluated 3 days after inoculation
Experimental: After the spray coating has dried on, the plants are inoculated with an aqueous spore suspension of Alternaria solani. The plants are then placed in an incubation cabinet at approximately 20° C. and a relative atmospheric humidity of 100%.
The test is evaluated 3 days after the inoculation.

[1] = Table B2, preventive, application rate 2 ppm a.i.
[2] = Table B1, preventive, application rate 100 ppm a.i.

SMILES	Efficacy in % found (Sphaerotheca fuliginea; [1])	Efficacy in % found (Alternaria solani)	Efficacy in % found (Sphaerotheca fuliginea; [2])	further results
CC1COC(Cn2cncn2)(c2ccc(Oc3ccc(Cl)cc3)cc2Cl)O1 (stereo not shown) [F7 difenoconazole, difenoconazole]	0%			Efficacy in % found (Venturia inaequalis; application rate 1 ppm a.i.): 20%
CC1(C(=O)Nc2ccc(O)c(Cl)c2Cl)CCCCC1 [F16 fenhexamid, fenhexamid]		43%	33%	Efficacy in % found (Botrytis cinerea): 88%
OC(Cc1ccccc1Cl)(Cn1nc[nH]c1=S)C1(Cl)CC1 (stereo not shown) [F41 prothioconazole, prothioconazole]	38%			
CCCN(CC)CC1COC2(CCC(C(C)(C)C)CC2)O1 (stereo not shown) [F46 spiroxamine, spiroxamine]		62%	38%	
CC(C)(C)C(O)(CCc1ccc(Cl)cc1)Cn1cncn1 (stereo not shown) [F47 tebuconazole, tebuconazole]	29%			Efficacy in % found (Venturia inaequalis; application rate 2 ppm a.i.): 13%
